# Experimental data reported in patent US6914045B2, “Glycopeptide antibiotics” (Wyeth Holdings Corporation, priority 2001, dated 2005).
# Tests used:
# Experiment in all cases: in vitro antibacterial evaluation, MIC by broth dilution
# Type in all cases: cell-based
# Enterococcus sp. = conditions: broth dilution, 18 hours at 35° C.
# Procedure: (§1) Methods for in vitro Antibacterial Evaluation (Table 1)
# (§2) The minimum inhibitory concentration (MIC), the lowest concentration of the antibiotic which inhibits growth of the test organism, is determined by the broth dilution method using Muller-Hinton II […] (Baltimore Biological Laboratories) following the recommendations of the National Committee for Clinical Laboratory Standards [Methods for dilution antimicrobial susceptibility tests for bacteria that grow aerobically, approved standard M7-A2, National Committee for Clinical Laboratory Standards, Villanova, Pa.].
# (§3) An inoculum level of 5×10^5 CFU/mL, and a range of antibiotic concentrations (64-0.06 μg/mL) is used. […] The test organisms include a spectrum of Gram-positive bacteria comprised of Staphylococcus sp., Streptococcus sp. and Enterococcus sp. These organisms include recent clinical isolates that are resistant to methicillin, penicillin and/or vancomycin.
# Staphylococcus sp. = conditions: broth dilution, 18 hours at 35° C.; for MIC Staphylococcus aureus (ATCC 29213): strain ATCC 29213; for MIC Staphylococcus aureus (GC 1131): strain GC 1131; for MIC Staphylococcus aureus (GC 3051): strain GC 3051; for MIC Staphylococcus aureus (GC 3053): strain GC 3053; for MIC Staphylococcus aureus (GC 4541): strain GC 4541; for MIC Staphylococcus aureus (GC 4542): strain GC 4542; for MIC Staphylococcus aureus-SMITH (GC 4543): strain GC 4543; for MIC Staphylococcus aureus (GC 4544): strain GC 4544; for MIC Staphylococcus aureus (GC 4545): strain GC 4545; for MIC Staphylococcus haemolyticus (GC 4546): strain GC 4546; for MIC Coagulase Negative Staphylococcus (GC 4547): strain GC 4547; for MIC Coagulase Negative Staphylococcus (GC 4548): strain GC 4548; for MIC Coagulase Negative Staphylococcus (GC 4549): strain GC 4549; for MIC Coagulase Negative Staphylococcus (GC 4551): strain GC 4551
# Procedure: as §1, §2, §3
# Streptococcus sp. = conditions: broth dilution, 18 hours at 35° C.
# Procedure: as §1, §2, §3
# Escherichia coli = conditions: 18 hours at 35° C.
# Procedure: as §2, §3
# [1] = inoculum 5×10^5 CFU/mL, strain ATCC 29212
# [2] = inoculum 5×10^5 CFU/mL, strain GC 2242
# [3] = inoculum 5×10^5 CFU/mL, strain GC 2243
# [4] = inoculum 5×10^5 CFU/mL, strain GC 2691
# [5] = inoculum 5×10^5 CFU/mL, strain GC 3059
# [6] = inoculum 5×10^5 CFU/mL, strain GC 4552
# [7] = inoculum 5×10^5 CFU/mL, strain GC 4553
# [8] = inoculum 5×10^5 CFU/mL, strain GC 4554
# [9] = inoculum 5×10^5 CFU/mL, strain GC 4556
# [10] = inoculum 5×10^5 CFU/mL, strain GC 4557
# [11] = inoculum 5×10^5 CFU/mL, strain GC 4558
# [12] = inoculum 5×10^5 CFU/mL, strain GC 6189
# [13] = inoculum 5×10^5 CFU/mL, strain ATCC 6301
# [14] = inoculum 5×10^5 CFU/mL, strain GC 1894
# [15] = inoculum 5×10^5 CFU/mL, strain GC 4563
# [16] = inoculum 5×10^5 CFU/mL, strain GC 4564
# [17] = inoculum 5×10^5 CFU/mL, strain GC 4565
smiles,measurement,setting,value
"N=C1NCC(C(O)C2NC(=O)C(CC3CCC(OC4OC(CO)C(OC5OC6COC7(OC6C(O)C5O)C5CC6CC(C5)CC7C6)C(O)C4O)CC3)NC(=O)C(CC3CCCCC3)NC(=O)CNC(=O)C(CO)NC(=O)C(C(O)C3CNC(=N)N3C3OC(CO)C(O)C(O)C3O)NC2=O)N1 (single isomer, unassigned) [Example 222]",MIC Enterococcus avium (GC 4558),Enterococcus sp.,64 µg/mL
same,MIC Enterococcus faecalis (ATCC 29212),Enterococcus sp.,>64 µg/mL
same,MIC Enterococcus faecalis (GC 2242),Enterococcus sp.,>64 µg/mL
same,MIC Enterococcus faecalis (GC 2691),Enterococcus sp.,>64 µg/mL
same,MIC Enterococcus faecalis (GC 3059),Enterococcus sp.,>64 µg/mL
same,MIC Enterococcus faecalis (GC 4552),Enterococcus sp.,>64 µg/mL
same,MIC Enterococcus faecalis (GC 4553),Enterococcus sp.,>64 µg/mL
same,MIC Enterococcus faecalis (GC 4554),Enterococcus sp.,>64 µg/mL
same,MIC Enterococcus faecalis (GC 6189),Enterococcus sp.,>64 µg/mL
same,MIC Enterococcus faecium (GC 2243),Enterococcus sp.,>64 µg/mL
same,MIC Enterococcus faecium (GC 4556),Enterococcus sp.,>64 µg/mL
same,MIC Enterococcus faecium (GC 4557),Enterococcus sp.,64 µg/mL
same,MIC Enterococcus faecalis (ATCC 29212),Enterococcus sp.; [1],>64 µg/mL
same,MIC Enterococcus faecalis (GC 2242),Enterococcus sp.; [2],>64 µg/mL
same,MIC Enterococcus faecium (GC 2243),Enterococcus sp.; [3],>64 µg/mL
same,MIC Enterococcus faecalis (GC 2691),Enterococcus sp.; [4],>64 µg/mL
same,MIC Enterococcus faecalis (GC 3059),Enterococcus sp.; [5],>64 µg/mL
same,MIC Enterococcus faecalis (GC 4552),Enterococcus sp.; [6],>64 µg/mL
same,MIC Enterococcus faecalis (GC 4553),Enterococcus sp.; [7],>64 µg/mL
same,MIC Enterococcus faecalis (GC 4554),Enterococcus sp.; [8],>64 µg/mL
same,MIC Enterococcus faecium (GC 4556),Enterococcus sp.; [9],>64 µg/mL
same,MIC Enterococcus faecium (GC 4557),Enterococcus sp.; [10],64 µg/mL
same,MIC Enterococcus avium (GC 4558),Enterococcus sp.; [11],64 µg/mL
same,MIC Enterococcus faecalis (GC 6189),Enterococcus sp.; [12],>64 µg/mL
same,MIC Staphylococcus aureus (ATCC 29213),Staphylococcus sp.,>64 µg/mL
same,MIC Staphylococcus aureus (GC 1131),Staphylococcus sp.,>64 µg/mL
same,MIC Staphylococcus aureus (GC 3051),Staphylococcus sp.,>64 µg/mL
same,MIC Staphylococcus aureus (GC 3053),Staphylococcus sp.,>64 µg/mL
same,MIC Staphylococcus aureus (GC 4541),Staphylococcus sp.,>64 µg/mL
same,MIC Staphylococcus aureus (GC 4542),Staphylococcus sp.,>64 µg/mL
same,MIC Staphylococcus aureus-SMITH (GC 4543),Staphylococcus sp.,>64 µg/mL
same,MIC Staphylococcus aureus (GC 4544),Staphylococcus sp.,>64 µg/mL
same,MIC Staphylococcus aureus (GC 4545),Staphylococcus sp.,>64 µg/mL
same,MIC Staphylococcus haemolyticus (GC 4546),Staphylococcus sp.,>64 µg/mL
same,MIC Coagulase Negative Staphylococcus (GC 4547),Staphylococcus sp.,>64 µg/mL
same,MIC Coagulase Negative Staphylococcus (GC 4548),Staphylococcus sp.,>64 µg/mL
same,MIC Coagulase Negative Staphylococcus (GC 4549),Staphylococcus sp.,>64 µg/mL
same,MIC Coagulase Negative Staphylococcus (GC 4551),Staphylococcus sp.,>64 µg/mL
same,MIC Streptococcus agalactiae (GC 4564),Streptococcus sp.,>64 µg/mL
same,MIC Streptococcus pneumoniae (ATCC 6301),Streptococcus sp.,64 µg/mL
same,MIC Streptococcus pneumoniae (GC 1894),Streptococcus sp.,32 µg/mL
same,MIC Streptococcus pneumoniae (GC 4565),Streptococcus sp.,64 µg/mL
same,MIC Streptococcus pyogenes (GC 4563),Streptococcus sp.,64 µg/mL
same,MIC Streptococcus pneumoniae (ATCC 6301),Streptococcus sp.; [13],64 µg/mL
same,MIC Streptococcus pneumoniae (GC 1894),Streptococcus sp.; [14],32 µg/mL
same,MIC Streptococcus pyogenes (GC 4563),Streptococcus sp.; [15],64 µg/mL
same,MIC Streptococcus agalactiae (GC 4564),Streptococcus sp.; [16],>64 µg/mL
same,MIC Streptococcus pneumoniae (GC 4565),Streptococcus sp.; [17],64 µg/mL
same,MIC Escherichia coli (ATCC 25922),Escherichia coli,>64 µg/mL
same,MIC Escherichia coli (GC 4559),Escherichia coli,>64 µg/mL
same,MIC Escherichia coli (GC 4560),Escherichia coli,64 µg/mL
"N=C1NCC(C(O)C2NC(=O)C(CC3CCC(OC4OC(CO)C(OC5OC6COC7(OC6C(O)C5O)C5CC6CC(C5)CC7C6)C(O)C4O)CC3)NC(=O)C(CC3CCCCC3)NC(=O)CNC(=O)C(CO)NC(=O)C(C(O)C3CNC(=N)N3C3OC(CO)C(O)C(O)C3O)NC2=O)N1 (single isomer, unassigned) [Example 223]",MIC Enterococcus avium (GC 4558),Enterococcus sp.,64 µg/mL
same,MIC Enterococcus faecalis (ATCC 29212),Enterococcus sp.,>64 µg/mL
same,MIC Enterococcus faecalis (GC 2242),Enterococcus sp.,>64 µg/mL
same,MIC Enterococcus faecalis (GC 2691),Enterococcus sp.,>64 µg/mL
same,MIC Enterococcus faecalis (GC 3059),Enterococcus sp.,>64 µg/mL
same,MIC Enterococcus faecalis (GC 4552),Enterococcus sp.,>64 µg/mL
same,MIC Enterococcus faecalis (GC 4553),Enterococcus sp.,64 µg/mL
same,MIC Enterococcus faecalis (GC 4554),Enterococcus sp.,>64 µg/mL
same,MIC Enterococcus faecalis (GC 6189),Enterococcus sp.,>64 µg/mL
same,MIC Enterococcus faecium (GC 2243),Enterococcus sp.,>64 µg/mL
same,MIC Enterococcus faecium (GC 4556),Enterococcus sp.,>64 µg/mL
same,MIC Enterococcus faecium (GC 4557),Enterococcus sp.,64 µg/mL
same,MIC Enterococcus faecalis (ATCC 29212),Enterococcus sp.; [1],>64 µg/mL
same,MIC Enterococcus faecalis (GC 2242),Enterococcus sp.; [2],>64 µg/mL
same,MIC Enterococcus faecium (GC 2243),Enterococcus sp.; [3],>64 µg/mL
same,MIC Enterococcus faecalis (GC 2691),Enterococcus sp.; [4],>64 µg/mL
same,MIC Enterococcus faecalis (GC 3059),Enterococcus sp.; [5],>64 µg/mL
same,MIC Enterococcus faecalis (GC 4552),Enterococcus sp.; [6],>64 µg/mL
same,MIC Enterococcus faecalis (GC 4553),Enterococcus sp.; [7],64 µg/mL
same,MIC Enterococcus faecalis (GC 4554),Enterococcus sp.; [8],>64 µg/mL
same,MIC Enterococcus faecium (GC 4556),Enterococcus sp.; [9],>64 µg/mL
same,MIC Enterococcus faecium (GC 4557),Enterococcus sp.; [10],64 µg/mL
same,MIC Enterococcus avium (GC 4558),Enterococcus sp.; [11],64 µg/mL
same,MIC Enterococcus faecalis (GC 6189),Enterococcus sp.; [12],>64 µg/mL
same,MIC Staphylococcus aureus (ATCC 29213),Staphylococcus sp.,>64 µg/mL
same,MIC Staphylococcus aureus (GC 1131),Staphylococcus sp.,>64 µg/mL
same,MIC Staphylococcus aureus (GC 3051),Staphylococcus sp.,64 µg/mL
same,MIC Staphylococcus aureus (GC 3053),Staphylococcus sp.,>64 µg/mL
same,MIC Staphylococcus aureus (GC 4541),Staphylococcus sp.,64 µg/mL
same,MIC Staphylococcus aureus (GC 4542),Staphylococcus sp.,64 µg/mL
same,MIC Staphylococcus aureus-SMITH (GC 4543),Staphylococcus sp.,64 µg/mL
same,MIC Staphylococcus aureus (GC 4544),Staphylococcus sp.,64 µg/mL
same,MIC Staphylococcus aureus (GC 4545),Staphylococcus sp.,64 µg/mL
same,MIC Staphylococcus haemolyticus (GC 4546),Staphylococcus sp.,64 µg/mL
same,MIC Coagulase Negative Staphylococcus (GC 4547),Staphylococcus sp.,64 µg/mL
same,MIC Coagulase Negative Staphylococcus (GC 4548),Staphylococcus sp.,64 µg/mL
same,MIC Coagulase Negative Staphylococcus (GC 4549),Staphylococcus sp.,64 µg/mL
same,MIC Coagulase Negative Staphylococcus (GC 4551),Staphylococcus sp.,64 µg/mL
same,MIC Streptococcus agalactiae (GC 4564),Streptococcus sp.,>64 µg/mL
same,MIC Streptococcus pneumoniae (ATCC 6301),Streptococcus sp.,64 µg/mL
same,MIC Streptococcus pneumoniae (GC 1894),Streptococcus sp.,32 µg/mL
same,MIC Streptococcus pneumoniae (GC 4565),Streptococcus sp.,>64 µg/mL
same,MIC Streptococcus pyogenes (GC 4563),Streptococcus sp.,64 µg/mL
same,MIC Streptococcus pneumoniae (ATCC 6301),Streptococcus sp.; [13],64 µg/mL
same,MIC Streptococcus pneumoniae (GC 1894),Streptococcus sp.; [14],32 µg/mL
same,MIC Streptococcus pyogenes (GC 4563),Streptococcus sp.; [15],64 µg/mL
same,MIC Streptococcus agalactiae (GC 4564),Streptococcus sp.; [16],>64 µg/mL
same,MIC Streptococcus pneumoniae (GC 4565),Streptococcus sp.; [17],>64 µg/mL
same,MIC Escherichia coli (ATCC 25922),Escherichia coli,>64 µg/mL
same,MIC Escherichia coli (GC 4559),Escherichia coli,>64 µg/mL
same,MIC Escherichia coli (GC 4560),Escherichia coli,32 µg/mL
